{"source": "patent US4308168A", "about": "“Vapor phase corrosion inhibitor compositions and method of inhibiting corrosion using said compositions” (priority 1978, dated 1981)", "key": {"[1]": {"assay": "Rust formation on polished carbon steel at a distance of 25 cm in closed vessel (vapor phase, condensed water)", "set-up": "key: The amount of the rust is less than that in the blank test.; x: The amount of the rust is the same as that in the blank test", "conditions": "20 mg sample, 5-liter vessel, 20°±2° C., observed 5 hours after water condensation", "protocol": "A laboratory dish containing 20 milligrams of each sample obtained in the preceding Examples was added to a 5-liter glass vessel containing 50 milliliters of 30% aqueous solution of glycerin.\nA piece of polished carbon steel (JIS G-4051) was arranged at the upper part of the vessel, at a distance of 25 centimeters from the dish. After keeping the vessel at 20°±2° C. during 1-5 days, water droplets were condensed on a surface of steel from moisture by pouring cold water into an aluminum pipe, and after 5 hours the presence of the rust on the steel piece was observed."}, "[2]": {"assay": "Oral acute toxicity, LD50 in rats", "conditions": "rat, in vivo, rats weighing 90 grams, fasted 24 hours, one week", "protocol": "Specifics of the chemicals listed in Table 2 were administered orally in various concentration to respective groups of 10 rats weighing 90 grams after fasting for 24 hours.\nAfter oral administration of the chemical, the rats were fed with a sufficient amount of a diet and water and kept in a thermo-hygrostat at a temperature of 25° C. and humidity of 60% during one week to determine the LD50."}, "[3]": {"conditions": "prior-art inhibitors; mineral oil; cited from earlier work"}, "[4]": {"conditions": "ambient temperatures; cited from earlier work"}}, "data": [{"molecule": "CC(C)(C)OC(=O)CN", "values": [{"measurement": "presence of rust on steel piece, after leaving for 1 day", "setting": "[1]", "value": "o"}, {"measurement": "presence of rust on steel piece, after leaving for 5 days", "setting": "[1]", "value": "o"}]}, {"molecule": "C1CCC(NC2CCCCC2)CC1.O=[N+]([O-])O", "note": "[DICHAN, dicyclohexylamine nitrate, reference compound]", "values": [{"measurement": "presence of rust on steel piece, after leaving for 1 day", "setting": "[1]", "value": "x"}, {"measurement": "presence of rust on steel piece, after leaving for 5 days", "setting": "[1]", "value": "x"}, {"measurement": "LD50 at 168 h", "setting": "[2]", "value": 200, "unit": "mg/kg"}, {"measurement": "solubility in oil", "setting": "[3]", "value": "no solubility in oil"}, {"measurement": "distance of diffusion of gas", "setting": "[4]", "value": "about 30 cm."}]}, {"molecule": "C1CCC(NC2CCCCC2)CC1", "note": "[FERROGUARD]", "values": [{"measurement": "solubility in oil", "setting": "[3]", "value": "only slightly soluble in mineral oil"}]}, {"molecule": "CNCC(=O)OC(C)(C)C", "note": "[N-methylglycine-tert-butyl ester, N-methylglycine-tert-butylester]", "values": [{"measurement": "presence of rust on steel piece, after leaving for 1 day", "setting": "[1]", "value": "o"}, {"measurement": "presence of rust on steel piece, after leaving for 5 days", "setting": "[1]", "value": "o"}]}, {"molecule": "C1CCC(NC2CCCCC2)CC1", "note": "[dicyclohexylamine, reference compound]", "values": [{"measurement": "LD50 at 168 h", "setting": "[2]", "value": 500, "unit": "mg/kg"}]}, {"molecule": "CC(C)(C)OC(=O)[C@@H](N)Cc1ccccc1", "note": "[phenylalanine-tert-butyl ester, phenylalanine-tert-butylester]", "values": [{"measurement": "presence of rust on steel piece, after leaving for 1 day", "setting": "[1]", "value": "o"}, {"measurement": "presence of rust on steel piece, after leaving for 5 days", "setting": "[1]", "value": "o"}]}, {"molecule": "CC(C)(C)OC(=O)[C@@H]1CCCN1", "note": "[proline-tert-butyl ester, proline-tert-butylester]", "values": [{"measurement": "presence of rust on steel piece, after leaving for 1 day", "setting": "[1]", "value": "o"}, {"measurement": "presence of rust on steel piece, after leaving for 5 days", "setting": "[1]", "value": "o"}, {"measurement": "LD50 at 168 h", "setting": "[2]", "value": "> 5000", "unit": "mg/kg"}]}, {"molecule": "CCOC(=O)C(C)N", "note": "(stereo not drawn) [α-alanine ethyl ester]", "values": [{"measurement": "presence of rust on steel piece, after leaving for 1 day", "setting": "[1]", "value": "o"}, {"measurement": "presence of rust on steel piece, after leaving for 5 days", "setting": "[1]", "value": "o"}, {"measurement": "LD50 at 168 h", "setting": "[2]", "value": "> 5000", "unit": "mg/kg"}]}, {"molecule": "CC(N)C(=O)OC(C)(C)C", "note": "(stereo not drawn) [α-alanine-tert-butyl ester, α-alanine-tert-butylester]", "values": [{"measurement": "presence of rust on steel piece, after leaving for 1 day", "setting": "[1]", "value": "o"}, {"measurement": "presence of rust on steel piece, after leaving for 5 days", "setting": "[1]", "value": "o"}, {"measurement": "solubility in water", "setting": "Solubility in water", "value": "wholly soluble in water"}]}, {"molecule": "CC(C)(C)OC(=O)CCN", "note": "[β-alanine-tert-butyl ester, β-alanine-tert-butylester]", "values": [{"measurement": "presence of rust on steel piece, after leaving for 1 day", "setting": "[1]", "value": "o"}, {"measurement": "presence of rust on steel piece, after leaving for 5 days", "setting": "[1]", "value": "o"}, {"measurement": "solubility in water", "setting": "Solubility in water", "value": "wholly soluble in water"}]}]}
